Our source for the TGI and GI50 values is PubChem BioAssay (NCI).

Common to all, as to assay: NCI-60 cell line screen, 48 h
Experiment [1] has as its system SK-MEL-2 melanoma.
For experiment [2], the system named is SNB-19 CNS.
Experiment [3] relates to TK-10 renal.
The subject of experiment [4] is SF-295 CNS.
Experiment [5] has as its system PC-3 prostate.
The test system of experiment [6] is HCT-116 colon.
For experiment [7], the system named is OVCAR-4 ovarian.
Experiment [8] concerns U251 CNS.
In experiment [9] the test system is RPMI-8226 leukemia.
Experiment [10] deals with CCRF-CEM leukemia.

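1) Cells in 96-well plates. 2) Compound, 48 h, 5 concentrations. 3) Linear interpolation between surrounding doses. 4) Unreached endpoint = highest concentration. GI50 is the concentration that inhibits growth by half. TGI denotes the concentration required for complete inhibition of growth.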

Consider `O=Cc1cccc2c1Oc1c(cccc1C(=O)O)S2`, for which the TGI in [1], in experiment [2], in experiment [3], in experiment [4], in experiment [5] and in [6] was above 100 µM in each case. The results for the TGI in experiment [7], in experiment [8] and in [9] were above 100 µM, above 100 µM and 63.3 µM, respectively.
Take `COc1cc(CNc2ccccc2C(=O)N2CCN(C(=O)c3cc(-c4cc(OC)c(OC)c(OC)c4)n4nc(-c5ccccc5)cc4n3)CC2)cc(OC)c1OC`: the GI50 in experiment [1] is 4.37 µM; in experiment [2], 6.73 µM; in [3] it was 6.85 µM; in [5] it was 2.35 µM; in [7] it was 4.37 µM; in experiment [8] it was 3.37 µM. Besides, the TGI in experiment [1] is above 100 µM; in experiment [2] it was above 100 µM; in experiment [3], above 100 µM; in experiment [5], above 100 µM; in experiment [7] it was above 100 µM; in [8] it was 70.3 µM.
Regarding `COc1ccc2nc3cc([N+](=O)[O-])ccc3c(NCCCN(C)C)c2c1`, the GI50 in experiment [2] was 0.299 µM; in [4], 0.35 µM; in [10], 0.557 µM; in experiment [6], 0.036 µM; in experiment [7], 0.0959 µM; in experiment [8], 0.0441 µM. The GI50 in experiment [9] was 0.038 µM. Also, the TGI in experiment [2] worked out at 2.61 µM; in experiment [4], 2.39 µM; in experiment [10] it was 4.31 µM; in [5], 1.55 µM; in [6], 1.25 µM; in experiment [7] it was 0.539 µM. The TGI in experiment [8] stood at 0.375 µM; in [9], 0.437 µM.
Regarding `Cc1cn2c(/C=N/N=C(N)N)c(-c3cccs3)nc2s1`, the GI50 in experiment [1] was 28.8 µM; in experiment [2] it was 11.9 µM; in [3], 12.9 µM; in experiment [4], 3.28 µM; in [10], 1.34 µM; in [5], 2.99 µM. The results for the GI50 in [6], in experiment [8] and in [9] were 1.35 µM, 1.77 µM and 1.48 µM, respectively. In addition, the TGI is above 100 µM in [1]; 35.8 µM in [2]; 26 µM in experiment [3]; 14.4 µM in experiment [4]; 3.24 µM in experiment [10]; 12.4 µM in [5]. The TGI came to 2.63 µM in experiment [6], 3.86 µM in experiment [8] and 3.5 µM in [9].
In the case of `Cc1ccc(S(=O)(=O)NNC(=O)c2cc(C)c(C)cc2N)cc1`, the TGI in experiment [2], in experiment [4], in [10], in [5], in experiment [6] and in [7] was above 100 µM in each case. The TGI in experiment [8] and in experiment [9] was above 100 µM each time.
`SCCSCCCSCCS`: the TGI in experiment [2] was above 100 µM; in experiment [4], above 100 µM; in [10] it was 41.5 µM; in experiment [5], above 100 µM; in experiment [6], above 100 µM; in experiment [7], 98.2 µM. In addition, the TGI in [8] was above 100 µM.
With `COc1ccc(/C=N\Nc2ccc([N+](=O)[O-])cn2)cc1OC`, the GI50 was above 100 µM in experiment [1]; 27 µM in experiment [2]; 3.18 µM in experiment [3]; above 100 µM in experiment [4]; above 100 µM in experiment [10]; above 100 µM in [5]. Further, the GI50 in experiment [8] was 3.56 µM. Further, the TGI in experiment [1] was above 100 µM; in experiment [2], above 100 µM; in experiment [3], 7.73 µM; in experiment [4], above 100 µM; in experiment [10], above 100 µM; in experiment [5] it was above 100 µM. The TGI in experiment [8] stood at 74.2 µM.
For `Cc1cc(C)c(Cn2cnc3c(Cl)ncnc32)c(C)c1CCl`, the GI50 in [1] was above 100 µM; in [2], above 100 µM; in experiment [4], above 100 µM; in experiment [10], 24.9 µM; in experiment [5], above 100 µM; in experiment [6], 68.8 µM. In addition, the GI50 in experiment [8] is 2.77 µM; in experiment [9] it was 24.4 µM. The TGI is above 100 µM in experiment [1]; above 100 µM in experiment [2]; above 100 µM in experiment [4]; 95.2 µM in [10]; above 100 µM in experiment [5]; above 100 µM in experiment [6]. The TGI in experiment [8] was 45.4 µM; in [9], above 100 µM.
`C=C(Nc1ccc([N+](=O)[O-])cc1[N+](=O)[O-])c1c/c(=N\NC(N)=S)c2ccccc2o1`: the TGI in [1], in experiment [2], in experiment [3], in experiment [4], in experiment [10] and in experiment [5] was above 100 µM throughout. For the same molecule, the TGI in [6], in [7] and in experiment [8] was above 100 µM throughout.
`O=Cc1ccc(-c2ccc(-c3nc4ccccc4o3)cc2)o1`: the GI50 in experiment [1] is 66.4 µM; in experiment [2], above 100 µM; in experiment [3], 32.5 µM; in experiment [4], 28 µM; in experiment [10], above 100 µM; in experiment [5] it was 30.3 µM. For the same molecule, the GI50 was 27.1 µM in experiment [6], above 100 µM in [7] and 25.4 µM in experiment [8]. The TGI is above 100 µM in experiment [1]; above 100 µM in experiment [2]; 74.8 µM in [3]; 85 µM in experiment [4]; above 100 µM in experiment [10]; above 100 µM in [5]. The TGI in experiment [6] was 80.4 µM; in [7], above 100 µM; in experiment [8], 88.1 µM.
As for `CCN(CC)CCCC(C)N=C(C1=C(C(=NC(C)CCCN(CC)CC)c2cccc(OC)c2)C(=O)NC1=O)c1cccc(OC)c1` (stereo not drawn), the GI50 in experiment [2] is 3.71 µM; in experiment [3], 1.26 µM; in experiment [4] it was 1.47 µM; in [10] it was 1.49 µM; in experiment [5], 1.47 µM; in experiment [6], 0.747 µM. Also, the GI50 in experiment [7] was 1.18 µM; in experiment [8], 1.06 µM; in experiment [9] it was 1.23 µM. Also, the TGI in [2] was 16.4 µM; in [3] it was 3.44 µM; in experiment [4], 5.94 µM; in experiment [10] it was 7.47 µM; in experiment [5] it was 5.12 µM; in experiment [6], 1.89 µM. Also, the figures for the TGI in experiment [7], in experiment [8] and in experiment [9] were 3.49 µM, 2.5 µM and 3.26 µM, respectively.
For the molecule `O=C(OCc1ncc(-c2ccc(C(F)(F)F)cc2)c(NC2CCCCCC2)n1)c1c(F)c(F)c(F)c(F)c1F`, the GI50 in experiment [2] is 14.1 µM; in [3], 21.5 µM; in [4] it was 17.4 µM; in experiment [10] it was 1.83 µM; in experiment [5], 12 µM; in experiment [6], 8.46 µM. Moreover, the GI50 is 15.5 µM in [7] and 3.07 µM in [9]. For the same molecule, the TGI in experiment [2] turned out to be 27.7 µM; in [3], 37 µM; in experiment [4], 33.8 µM; in [10], 7.02 µM; in experiment [5], 26.7 µM; in experiment [6], 25.9 µM. Moreover, the values for the TGI in [7] and in experiment [9] were 30.6 µM and 9.95 µM, respectively.
In the case of `OCC(O)c1nc2ccc3[nH]ncc3c2c2c1CCCC2` (stereo not drawn), the GI50 in experiment [1] is 1.18 µM; in [2] it was 1.58 µM; in experiment [3] it was 1.42 µM; in experiment [4], 1.62 µM; in experiment [10], 1.62 µM; in experiment [5], 1.43 µM. Moreover, the GI50 is 1.24 µM in experiment [6], 2.49 µM in [7] and 1.65 µM in experiment [8]. Moreover, the TGI in [1] is 2.99 µM; in experiment [2], above 50 µM; in experiment [3], above 50 µM; in [4], above 50 µM; in experiment [10], above 50 µM; in experiment [5], above 50 µM. Moreover, the TGI in experiment [6], in [7] and in [8] was above 50 µM each time.
For `CCCCCCCCCCCCCCCCCC(=O)OCC(COC(=O)CCCN)OC(=O)CCCN` (stereo not drawn), the TGI in [2] is 48 µM; in experiment [3], 36.7 µM; in experiment [4], 35.1 µM; in experiment [10], above 100 µM; in experiment [5], 35.5 µM; in experiment [6] it was 40.1 µM. Moreover, the TGI is 40.9 µM in experiment [7] and 40.8 µM in [8].
As to `COc1cccc(NC(=O)c2sc3nc4c(cc3c2N)C(=O)CCC4)c1`, the GI50 is 0.0611 µM in experiment [1]; 1.72 µM in [2]; above 100 µM in experiment [3]; 0.0818 µM in experiment [4]; 0.0893 µM in [10]; 0.11 µM in experiment [5]. In addition, the GI50 in [6] is 0.0745 µM; in [8], 0.158 µM; in experiment [9], 0.332 µM. Besides, the TGI in experiment [1], in [2], in [3], in [4], in experiment [10] and in experiment [5] was above 100 µM each time. Also, the figures for the TGI in experiment [6], in experiment [8] and in experiment [9] were above 100 µM, 10.4 µM and above 100 µM, respectively.
In the case of `O=[N+]([O-])CCc1cccc([N+](=O)[O-])c1`, the TGI in [1], in [2], in experiment [3], in experiment [4], in experiment [10] and in experiment [6] was above 100 µM each time. Also, the TGI in [7], in experiment [8] and in [9] was above 100 µM in each case.
